Assay results: patent US9932314B2, “Pyrazole compounds and their use as T-type calcium channel blockers” (IDORSIA PHARMACEUTICALS LTD, priority 2015, dated 2018)
pIC50: −log10 of the molar value.

The compounds below were run against T1, voltage-dependent T-type calcium channel subunit alpha-1G (Cav3.2) (Homo sapiens, UniProt O95180) (assay: FLIPR calcium flux assay, HEK293 cells recombinantly expressing Cav3.2). Details: Cav3.2-channel, Fluo-4-AM, 3 min incubation, stimulation with 10 mM CaCl2.
T1 construct: expressed in transfected cells; host or cells: HEK293
Assay type: cell-based
Procedure: In Vitro Methods—Measurement of Calcium Channel Flux by Means of FLIPR Assays.
HEK293 cells recombinantly expressing either voltage-dependent T-type calcium channel subunit […] (Cav3.2) or voltage-dependent L-type calcium channel subunit alpha-1C (Cav1.2) are assayed for calcium flux using the calcium indicator dye Fluo-4-AM (Molecular Devices) and FLIPR technology (Fluorometric Imaging Plate Reader, Molecular Devices) (Xie X, Van Deusen A L, Vitko I, Babu D A, Davies L A, Huynh N, Cheng H, Yang N, Barrett P Q, Perez-Reyes E. Validation of high throughput screening assays against three subtypes of Ca(v)3 T-type channels using molecular and pharmacologic approaches. Assay and Drug Development Technologies 2007, 5(2), 191-203). The HEK293 cells recombinantly expressing Cav3.2 are maintained in DMEM growth medium (Life Technologies) supplemented with 10% Fetal Bovine Serum (FBS), 100 U/ml penicilin (Life Technologies), 100 μg/ml streptomycin (Life Technologies) and 1 mg/ml G418 (Life Technologies). HEK293 cells recombinantly expressing Cav1.2 are maintained in DMEM growth medium (Life technologies) supplemented with 10% FBS, 0.1 mg/ml G418 (Life Technologies), 0.1 mg/ml hygromycin (Life Technologies) and 40 ug/ml zeocin (Life Technologies).
The seeded plates are incubated overnight at 37° C.
The cells are then washed three times with assay buffer (HBSS 1×; 0.375 g/L NaHCO3; 20 mM Hepes; 1% FBS; pH 7.4) and allowed to rest in 50 μl of wash buffer for 30 minutes.
Stock solutions of test compounds are prepared to a concentration of 10 mM in DMSO. For the Cav3.2 assay, serial dilutions of the compounds are prepared in TEAC buffer (100 mM tetraethylammonium chloride; 20 mM Hepes; 2.5 mM CaCl2; 5 mM KCl; 1 mM MgCl2; 1% FBS; pH 7.2), for the Cav1.2 assay serial dilutions are prepared in assay buffer. […] The compounds are incubated with the cells for 3 minutes and Ca2+ entry is stimulated by adding either CaCl2 to a final concentration of 10 mM (Cav3.2 assay) or by adding KCl to a final concentration of 20 mM (Cav1.2 assay). The kinetics of fluorescence increase are recorded for every well and the area under the fluorescence trace for every compound concentration is used to generate inhibition curves using non-linear regression sigmoidal concentration-response curve analysis with in-house software.

T1 sequence (O95180 whole entry): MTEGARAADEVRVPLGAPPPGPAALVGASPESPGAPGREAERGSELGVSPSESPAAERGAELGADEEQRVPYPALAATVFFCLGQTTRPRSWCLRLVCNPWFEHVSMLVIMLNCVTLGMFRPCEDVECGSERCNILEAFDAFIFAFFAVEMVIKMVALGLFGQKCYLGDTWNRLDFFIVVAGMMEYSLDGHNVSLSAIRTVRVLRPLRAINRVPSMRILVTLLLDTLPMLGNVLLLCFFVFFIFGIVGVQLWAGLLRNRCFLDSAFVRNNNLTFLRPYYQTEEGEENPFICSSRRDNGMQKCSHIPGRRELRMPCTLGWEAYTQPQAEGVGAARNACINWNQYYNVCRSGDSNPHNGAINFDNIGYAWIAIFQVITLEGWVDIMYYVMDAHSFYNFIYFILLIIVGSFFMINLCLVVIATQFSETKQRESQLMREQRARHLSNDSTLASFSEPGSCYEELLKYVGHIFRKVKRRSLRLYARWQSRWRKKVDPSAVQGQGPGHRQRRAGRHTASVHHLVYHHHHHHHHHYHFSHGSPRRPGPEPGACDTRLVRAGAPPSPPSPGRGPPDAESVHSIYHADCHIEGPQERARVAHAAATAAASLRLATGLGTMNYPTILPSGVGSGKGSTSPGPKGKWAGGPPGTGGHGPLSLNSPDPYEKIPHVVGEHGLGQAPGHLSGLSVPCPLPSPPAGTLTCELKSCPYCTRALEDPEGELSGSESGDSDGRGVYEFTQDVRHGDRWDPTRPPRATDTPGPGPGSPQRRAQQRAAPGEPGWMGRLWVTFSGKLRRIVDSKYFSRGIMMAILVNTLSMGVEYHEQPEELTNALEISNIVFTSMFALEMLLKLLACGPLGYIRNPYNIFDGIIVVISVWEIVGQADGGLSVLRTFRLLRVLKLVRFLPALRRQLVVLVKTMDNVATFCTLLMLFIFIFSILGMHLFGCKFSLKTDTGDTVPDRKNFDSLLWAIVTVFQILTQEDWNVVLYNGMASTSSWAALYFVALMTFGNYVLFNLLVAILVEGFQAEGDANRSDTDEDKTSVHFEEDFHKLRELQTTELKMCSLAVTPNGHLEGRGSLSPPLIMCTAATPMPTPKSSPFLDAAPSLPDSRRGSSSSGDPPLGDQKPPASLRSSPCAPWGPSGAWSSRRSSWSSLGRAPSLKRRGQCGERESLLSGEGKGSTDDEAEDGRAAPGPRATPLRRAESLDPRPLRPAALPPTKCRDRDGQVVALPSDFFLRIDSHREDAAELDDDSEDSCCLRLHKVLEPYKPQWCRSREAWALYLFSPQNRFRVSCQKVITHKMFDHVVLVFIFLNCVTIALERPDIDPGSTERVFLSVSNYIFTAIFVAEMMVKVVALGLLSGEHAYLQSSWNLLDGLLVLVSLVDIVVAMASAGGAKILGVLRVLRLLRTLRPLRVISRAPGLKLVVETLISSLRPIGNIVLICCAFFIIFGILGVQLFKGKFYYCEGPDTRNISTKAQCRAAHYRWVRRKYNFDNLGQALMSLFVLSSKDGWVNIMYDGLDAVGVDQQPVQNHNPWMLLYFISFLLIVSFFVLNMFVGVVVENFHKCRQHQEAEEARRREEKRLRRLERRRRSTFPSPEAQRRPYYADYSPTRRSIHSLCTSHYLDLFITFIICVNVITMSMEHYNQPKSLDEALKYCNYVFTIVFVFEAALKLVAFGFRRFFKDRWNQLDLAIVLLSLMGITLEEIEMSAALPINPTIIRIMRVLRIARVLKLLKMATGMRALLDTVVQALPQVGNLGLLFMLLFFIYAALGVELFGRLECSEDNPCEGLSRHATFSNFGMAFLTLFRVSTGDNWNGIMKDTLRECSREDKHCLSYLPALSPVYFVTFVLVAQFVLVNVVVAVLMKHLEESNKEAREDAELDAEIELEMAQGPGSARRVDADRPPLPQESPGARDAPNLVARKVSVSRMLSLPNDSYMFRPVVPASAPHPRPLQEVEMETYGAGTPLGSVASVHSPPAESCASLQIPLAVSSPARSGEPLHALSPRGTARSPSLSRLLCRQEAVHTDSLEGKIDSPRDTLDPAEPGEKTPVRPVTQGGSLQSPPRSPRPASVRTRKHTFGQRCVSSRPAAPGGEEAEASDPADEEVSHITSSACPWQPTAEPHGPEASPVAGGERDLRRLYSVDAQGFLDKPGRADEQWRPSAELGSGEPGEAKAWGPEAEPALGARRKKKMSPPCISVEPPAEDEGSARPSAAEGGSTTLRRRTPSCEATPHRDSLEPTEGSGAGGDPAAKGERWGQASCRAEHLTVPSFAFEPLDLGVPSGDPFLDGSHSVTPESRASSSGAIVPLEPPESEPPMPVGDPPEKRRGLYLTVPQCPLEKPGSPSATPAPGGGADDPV

Going from `O=C(Cc1ccc(-c2cccnc2)cc1)Nc1ccn(Cc2ccc(F)cc2)n1` [Example 83, N-[1-(4-Fluoro-benzyl)-1H-pyrazol-3-yl]-2-(4-pyridin-3-yl-phenyl)-acetamide] to `Cc1nccnc1-c1ccc(CC(=O)Nc2ccn(Cc3ccc(F)cc3)n2)cc1` [Example 80, N-[1-(4-Fluoro-benzyl)-1H-pyrazol-3-yl]-2-[4-(3-methyl-pyrazin-2-yl)-phenyl]-acetamide], the pIC50 falls from 7.59 to 7.04 (0.55 log units).

Going from `Cn1ncc2ccc(CC(=O)Nc3ccn(Cc4ccc(C#N)cc4)n3)cc21` [Example 295, N-[1-(4-Cyano-benzyl)-1H-pyrazol-3-yl]-2-(1-methyl-1H-indazol-6-yl)-acetamide] to `Cn1ncc2ccc(CC(=O)Nc3ccn(Cc4ccc(C#N)c(F)c4)n3)cc21` [Example 291, N-[1-(4-Cyano-3-fluoro-benzyl)-1H-pyrazol-3-yl]-2-(1-methyl-1H-indazol-6-yl)-acetamide], the pIC50 rises from 6.51 to 7.10 (0.59 log units).

Compared with `Cn1cc(C(F)(F)F)c2cc(CC(=O)Nc3ccn(Cc4ccc(C#N)cn4)n3)ccc21` [Example 326, N-[1-(5-Cyano-pyridin-2-ylmethyl)-1H-pyrazol-3-yl]-2-(1-methyl-3-trifluoromethyl-1H-indol-5-yl)-acetamide], `N#Cc1ccc(Cn2ccc(NC(=O)Cc3ccc(OCC(F)(F)F)c(F)c3)n2)nc1` [Example 382, N-[1-(5-Cyano-pyridin-2-ylmethyl)-1H-pyrazol-3-yl]-2-[3-fluoro-4-(2,2,2-trifluoro-ethoxy)-phenyl]-acetamide] is 0.54 log units lower in pIC50: 7.48 for the first, 6.94 for the second. The first is the more potent here.

Going from `CC(C)Cc1ccc(Cn2ccc(NC(=O)Cc3ccc(C(C)C)cc3)n2)nc1` [Example 98, N-[1-(5-Isobutyl-pyridin-2-ylmethyl)-1H-pyrazol-3-yl]-2-(4-isopropyl-phenyl)-acetamide] to `CC(C)c1ccc(CC(=O)Nc2ccn(Cc3ccc(N4CCCC4)cn3)n2)cc1` [Example 395, 2-(4-Isopropyl-phenyl)-N-[1-(5-pyrrolidin-1-yl-pyridin-2-ylmethyl)-1H-pyrazol-3-yl]-acetamide], the pIC50 falls from 7.42 to 6.50 (0.92 log units). The first is the more potent here.

Going from `Cn1ncc2ccc(CC(=O)Nc3ccn(Cc4cc(F)c(C#N)c(F)c4)n3)cc21` [Example 346, N-[1-(4-Cyano-3,5-difluoro-benzyl)-1H-pyrazol-3-yl]-2-(1-methyl-1H-indazol-6-yl)-acetamide] to `Cn1ncc2cc(CC(=O)Nc3ccn(Cc4ccc(F)c(C#N)c4)n3)ccc21` [Example 268, N-[1-(3-Cyano-4-fluoro-benzyl)-1H-pyrazol-3-yl]-2-(1-methyl-1H-indazol-5-yl)-acetamide], the pIC50 rises from 6.80 to 7.46 (0.66 log units). The second is the more potent here.

Going from `N#Cc1cc(Cn2ccc(NC(=O)Cc3ccc(N4CCCC4)nc3)n2)ccc1F` [Example 307, N-[1-(3-Cyano-4-fluoro-benzyl)-1H-pyrazol-3-yl]-2-(6-pyrrolidin-1-yl-pyridin-3-yl)-acetamide] to `N#Cc1ccc(Cn2ccc(NC(=O)Cc3ccc(N4CCCC4)nc3)n2)cc1` [Example 176, N-[1-(4-Cyano-benzyl)-1H-pyrazol-3-yl]-2-(6-pyrrolidin-1-yl-pyridin-3-yl)-acetamide], the pIC50 falls from 7.38 to 7.17 (0.21 log units).

First: Cc1cc(CC(=O)Nc2ccn(Cc3ccc(C#N)cn3)n2)cnc1OCC(F)(F)F [Example 417, N-[1-(5-Cyano-pyridin-2-ylmethyl)-1H-pyrazol-3-yl]-2-[5-methyl-6-(2,2,2-trifluoro-ethoxy)-pyridin-3-yl]-acetamide]
Second: CN(CC(F)F)c1ccc(CC(=O)Nc2ccn(Cc3ccc(C#N)cn3)n2)cn1 [Example 151, N-[1-(5-Cyano-pyridin-2-ylmethyl)-1H-pyrazol-3-yl]-2-{6-[(2,2-difluoro-ethyl)-methyl-amino]-pyridin-3-yl}-acetamide]
The pIC50 of the first is 1.24 log units higher: 7.43 for the first, 6.19 for the second. The first is the more potent here.

Compared with `N#Cc1cc(Cn2ccc(NC(=O)Cc3ccc(OCC4COC4)cc3)n2)ccc1F` [Example 279, N-[1-(3-Cyano-4-fluoro-benzyl)-1H-pyrazol-3-yl]-2-[4-(oxetan-3-ylmethoxy)-phenyl]-acetamide], `N#Cc1cc(Cn2ccc(NC(=O)Cc3ccc(OCC4CC(F)(F)C4)cc3)n2)ccc1F` [Example 313, N-[1-(3-Cyano-4-fluoro-benzyl)-1H-pyrazol-3-yl]-2-[4-(3,3-difluoro-cyclobutylmethoxy)-phenyl]-acetamide] is 0.79 log units higher in pIC50: 6.56 for the first, 7.35 for the second.

Going from `CN(C)c1ccc(CC(=O)Nc2ccn(Cc3ccc(C#N)c(F)c3)n2)cn1` [Example 58, N-[1-(4-Cyano-3-fluoro-benzyl)-1H-pyrazol-3-yl]-2-(6-dimethylamino-pyridin-3-yl)-acetamide] to `CN(C)c1ccc(CC(=O)Nc2ccn(Cc3ccc(Cl)c(F)c3)n2)cc1` [Example 26, N-[1-(4-Chloro-3-fluoro-benzyl)-1H-pyrazol-3-yl]-2-(4-dimethylamino-phenyl)-acetamide], the pIC50 rises from 6.55 to 8.27 (1.72 log units).

First: Cc1cn(C)c2ccc(CC(=O)Nc3ccn(Cc4ccc(F)c(F)c4)n3)cc12 [Example 260, N-[1-(3,4-Difluoro-benzyl)-1H-pyrazol-3-yl]-2-(1,3-dimethyl-1H-indol-5-yl)-acetamide]
Second: CC(C)c1cn(C)c2ccc(CC(=O)Nc3ccn(Cc4ccc(F)c(C#N)c4)n3)cc12 [Example 328, N-[1-(3-Cyano-4-fluoro-benzyl)-1H-pyrazol-3-yl]-2-(3-isopropyl-1-methyl-1H-indol-5-yl)-acetamide]
The pIC50 of the first is 1.03 log units higher: 8.51 for the first, 7.48 for the second.

`CC(C)c1ccc(CC(=O)Nc2ccn(Cc3cc(C4CC4)c(C#N)cn3)n2)cc1` [Example 170, N-[1-(5-Cyano-4-cyclopropyl-pyridin-2-ylmethyl)-1H-pyrazol-3-yl]-2-(4-isopropyl-phenyl)-acetamide] and `CC1(C)COc2cc(CC(=O)Nc3ccn(Cc4ccc(C#N)cn4)n3)ccc21` [Example 387, N-[1-(5-Cyano-pyridin-2-ylmethyl)-1H-pyrazol-3-yl]-2-(3,3-dimethyl-2,3-dihydro-benzofuran-6-yl)-acetamide] are within 0.2 log units of each other in pIC50: 6.72 for the first, 6.91 for the second.

Compared with `COC(C)c1ccc(CC(=O)Nc2ccn(Cc3ccc(F)c(F)c3)n2)cc1` (racemic) [Example 202, rac-N-[1-(3,4-Difluoro-benzyl)-1H-pyrazol-3-yl]-2-[4-(1-methoxy-ethyl)-phenyl]-acetamide], `N#Cc1cc(Cn2ccc(NC(=O)Cc3ccc(C4(F)COC4)cc3)n2)ccc1F` [Example 270, N-[1-(3-Cyano-4-fluoro-benzyl)-1H-pyrazol-3-yl]-2-[4-(3-fluoro-oxetan-3-yl)-phenyl]-acetamide] is 0.51 log units lower in pIC50: 7.80 for the first, 7.29 for the second.

Compared with `Cc1cc(CC(=O)Nc2ccn(Cc3ccc(F)c(C#N)n3)n2)cc(C)c1OCC(F)(F)F` [Example 415, N-[1-(6-Cyano-5-fluoro-pyridin-2-ylmethyl)-1H-pyrazol-3-yl]-2-[3,5-dimethyl-4-(2,2,2-trifluoro-ethoxy)-phenyl]-acetamide], `N#CC1(c2ccc(CC(=O)Nc3ccn(Cc4ccc(F)c(F)c4)n3)cc2C(F)(F)F)CC1` [Example 404, 2-[4-(1-Cyano-cyclopropyl)-3-trifluoromethyl-phenyl]-N-[1-(3,4-difluoro-benzyl)-1H-pyrazol-3-yl]-acetamide] is 0.46 log units lower in pIC50: 8.31 for the first, 7.85 for the second.

Going from `COCCN(C)c1ccc(CC(=O)Nc2ccn(Cc3ccc(OC)cc3)n2)cc1` [Example 125, N-[1-(4-Methoxy-benzyl)-1H-pyrazol-3-yl]-2-{4-[(2-methoxy-ethyl)-methyl-amino]-phenyl}-acetamide] to `COCCN(C)c1ccc(CC(=O)Nc2ccn(Cc3ccc(C#N)cc3)n2)cn1` [Example 181, N-[1-(4-Cyano-benzyl)-1H-pyrazol-3-yl]-2-{6-[(2-methoxy-ethyl)-methyl-amino]-pyridin-3-yl}-acetamide], the pIC50 falls from 7.19 to 6.57 (0.62 log units).

Going from `CN(CC1CC1)c1ccc(CC(=O)Nc2ccn(Cc3ccc(F)cc3)n2)cn1` [Example 187, 2-[6-(Cyclopropylmethyl-methyl-amino)-pyridin-3-yl]-N-[1-(4-fluoro-benzyl)-1H-pyrazol-3-yl]-acetamide] to `N#Cc1ccc(Cn2ccc(NC(=O)Cc3ccc(N4CC(F)C4)cc3)n2)cc1` [Example 72, N-[1-(4-Cyano-benzyl)-1H-pyrazol-3-yl]-2-[4-(3-fluoro-azetidin-l-yl)-phenyl]-acetamide], the pIC50 falls from 7.82 to 7.34 (0.48 log units).

For `N#Cc1ccc(Cn2ccc(NC(=O)Cc3ccc(OCC4CC4)c(OC(F)(F)F)c3)n2)nc1` [Example 397, N-[1-(5-Cyano-pyridin-2-ylmethyl)-1H-pyrazol-3-yl]-2-(4-cyclopropylmethoxy-3-trifluoromethoxy-phenyl)-acetamide], the pIC50 was 7.36.
